# Measured values published in US11084829B2, “Ubiquitin-specific-processing protease 7 (USP7) modulators and uses thereof” (RAPT THERAPEUTICS, INC., priority 2018, dated 2021).
# Molecular target: USP7 (Homo sapiens, UniProt Q93009)
# Assay: USP7 inhibitory potency (IC50)
# Format: biochemical
# Description: Activity for compounds described herein is provided in Table 2, wherein potency levels are provided as follows: (Potency: USP7 IC50: A<0.01 μM; B=0.01-0.1 μM; C=>0.1 μM.
# Sequence of USP7 (Q93009 whole entry): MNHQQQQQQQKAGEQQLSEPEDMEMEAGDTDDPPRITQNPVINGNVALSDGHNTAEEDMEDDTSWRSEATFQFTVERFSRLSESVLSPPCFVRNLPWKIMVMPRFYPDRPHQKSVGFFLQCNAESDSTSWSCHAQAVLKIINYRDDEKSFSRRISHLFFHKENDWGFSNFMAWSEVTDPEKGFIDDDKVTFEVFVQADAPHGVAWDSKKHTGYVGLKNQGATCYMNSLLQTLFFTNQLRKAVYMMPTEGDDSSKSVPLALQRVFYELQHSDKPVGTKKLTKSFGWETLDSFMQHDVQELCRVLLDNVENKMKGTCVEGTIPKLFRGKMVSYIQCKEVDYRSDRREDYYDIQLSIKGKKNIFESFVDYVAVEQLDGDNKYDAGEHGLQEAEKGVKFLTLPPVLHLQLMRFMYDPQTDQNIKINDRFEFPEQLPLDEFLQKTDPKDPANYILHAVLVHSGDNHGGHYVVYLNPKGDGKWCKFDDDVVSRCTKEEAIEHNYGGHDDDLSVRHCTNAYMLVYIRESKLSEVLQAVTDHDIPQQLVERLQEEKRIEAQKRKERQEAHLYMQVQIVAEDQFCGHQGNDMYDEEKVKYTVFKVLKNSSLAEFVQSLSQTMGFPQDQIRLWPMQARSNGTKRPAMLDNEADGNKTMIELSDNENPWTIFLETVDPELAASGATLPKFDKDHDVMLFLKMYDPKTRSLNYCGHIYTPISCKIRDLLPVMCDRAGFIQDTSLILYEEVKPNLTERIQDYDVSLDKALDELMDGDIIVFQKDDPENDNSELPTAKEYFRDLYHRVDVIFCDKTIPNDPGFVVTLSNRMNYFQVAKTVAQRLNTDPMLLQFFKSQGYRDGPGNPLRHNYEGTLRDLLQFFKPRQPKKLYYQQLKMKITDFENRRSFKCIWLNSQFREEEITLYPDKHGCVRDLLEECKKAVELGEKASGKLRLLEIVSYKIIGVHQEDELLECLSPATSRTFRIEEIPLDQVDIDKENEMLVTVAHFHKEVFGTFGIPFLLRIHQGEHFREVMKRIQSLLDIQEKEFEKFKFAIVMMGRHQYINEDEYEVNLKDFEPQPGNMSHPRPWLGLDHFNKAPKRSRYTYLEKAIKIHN
row,Compound,IC50 [nM]
1,"C[C@H]1CNC[C@H](C)N1Cc1c(Cl)cc(Cl)cc1-c1ncnc2cc(CN3C(=O)CN(C)C3=O)sc12 [Example 94, 3-((4-(3,5-dichloro-2-(((2S,6S)-2,6-dimethylpiperazin-1-yl)methyl)phenyl)thieno[3,2-d]pyrimidin-6-yl)methyl)-1-methylimidazolidine-2,4-dione]",< 10
2,"Cc1cc(Cl)cc(-c2ccnc3cc(CN4C(=O)C5CC5C4=O)sc23)c1CN1[C@@H](C)CN(C(C)C)C[C@@H]1C (stereo partly drawn) [Example 32, 3-((7-(5-chloro-2-(((2S,6S)-4-isopropyl-2,6-dimethylpiperazin-1-yl)methyl)-3-methylphenyl)thieno[3,2-b]pyridin-2-yl)methyl)-3-azabicyclo[3.1.0]hexane-2,4-dione]",< 10
3,"3-((7-(5-chloro-2-(((2S,6S)-2,6-dimethyl piperazin-1-yl)methyl)-3-methylphenyl)thieno[3,2-b]pyridin-2-yl)methyl)-1-methylpyrimidine-2,4(1H,3H)-dione [Example 78]",< 10
4,"Cc1cc(Cl)cc(-c2ccnc3cc(CN4C(=O)CCC4=O)sc23)c1CN1CCN(CCO)C[C@@H]1C [Example 13, (S)-1-((7-(5-chloro-2-((4-(2-hydroxyethyl)-2-methylpiperazin-1-yl)methyl)-3-methylphenyl)thieno[3,2-b]pyridin-2-yl)methyl)pyrrolidine-2,5-dione]",< 10
5,"Cc1cc(Cl)cc(-c2ccnc3cc(CN4C(=O)C5C(C4=O)C5(C)C)sc23)c1CN1CCNCC1 (stereo not shown) [Example 6, 3-((7-(5-chloro-3-methyl-2-(piperazin-1-ylmethyl)phenyl)thieno[3,2-b]pyridin-2-yl)methyl)-6,6-dimethyl-3-azabicyclo[3.1.0]hexane-2,4-dione]",10 to 100
6,"Cc1cc(Cl)cc(-c2ccnc3cc(CN4C(=O)CCC4=O)sc23)c1CN1CCNCC1 [Example 5, 1-((7-(5-chloro-3-methyl-2-(piperazin-1-ylmethyl)phenyl)thieno[3,2-b]pyridin-2-yl)methyl)pyrrolidine-2,5-dione]",10 to 100
7,"C[C@@H]1CN(Cc2c(Cl)cc(Cl)cc2-c2ncnc3cc(CN4C(=O)C5CC5C4=O)sc23)[C@@H](C)CN1 (stereo partly drawn) [Example 75, 3-((4-(3,5-dichloro-2-(((2S,5R)-2,5-dimethylpiperazin-1-yl)methyl)phenyl)thieno[3,2-d]pyrimidin-6-yl)methyl)-3-azabicyclo[3.1.0]hexane-2,4-dione]",< 10
8,"Cc1cc(Cl)cc(-c2ccnc3cc(CN4C(=O)CCC4=O)sc23)c1CN1[C@@H](C)CNC[C@@H]1C [Example 14, 1-((7-(5-chloro-2-(((2S,6S)-2,6-dimethylpiperazin-1-yl)methyl)-3-methylphenyl)thieno[3,2-b]pyridin-2-yl)methyl)pyrrolidine-2,5-dione]",< 10
9,"Cc1cc(Cl)cc(-c2ccnc3cc(CN4C(=O)C5C(C4=O)C5(C)C)sc23)c1CN1C[C@@H](C)NC[C@@H]1C (stereo partly drawn) [Example 39, 3-((7-(5-chloro-2-(((2S,5R)-2,5-dimethylpiperazin-1-yl)methyl)-3-methylphenyl)thieno[3,2-b]pyridin-2-yl)methyl)-6,6-dimethyl-3-azabicyclo[3.1.0]hexane-2,4-dione]",< 10
10,"Cc1cc(Cl)cc(-c2ccnc3cc(CN4C(=O)C5CC5C4=O)sc23)c1CN1C[C@H](C)NC[C@H]1C (stereo partly drawn) [Example 37, 3-((7-(5-chloro-2-(((2R,5 S)-2,5-dimethylpiperazin-1-yl)methyl)-3-methylphenyl)thieno[3,2-b]pyridin-2-yl)methyl)-3-azabicyclo[3.1.0]hexane-2,4-dione]",< 10
11,"Cc1cc(Cl)cc(-c2ncnc3cc(CN4C(=O)C5C(C4=O)C5(C)C)sc23)c1CN1[C@@H](C)CNC[C@@H]1C (stereo partly drawn) [Example 56, 3-((4-(5-chloro-2-(((2S,6S)-2,6-dimethylpiperazin-1-yl)methyl)-3-methylphenyl)thieno[3,2-d]pyrimidin-6-yl)methyl)-6,6-dimethyl-3-azabicyclo[3.1.0]hexane-2,4-dione]",10 to 100
12,"Cc1cc(C)c(CN2CCNC[C@@H]2C)c(-c2ncnc3cc(CN4C(=O)C5CC5C4=O)sc23)c1 (stereo partly drawn) [Example 71, 3-((4-(3,5-dimethyl-2-(((S)-2-methylpiperazin-1-yl)methyl)phenyl)thieno[3,2-d]pyrimidin-6-yl)methyl)-3-azabicyclo[3.1.0]hexane-2,4-dione]",> 100
13,"Cc1cc(Cl)cc(-c2ccnc3cc(Cn4c(=O)ccn(C)c4=O)sc23)c1CC1CNCCO1 (stereo not shown) [Example 108, 3-((7-(5-chloro-3-methyl-2-(morpholin-2-ylmethyl)phenyl)thieno[3,2-b]pyridin-2-yl)methyl)-1-methylpyrimidine-2,4(1H,3H)-dione]",< 10
14,"CCN1CCN(Cc2c(C)cc(Cl)cc2-c2ccnc3cc(CN4C(=O)C5C(C4=O)C5(C)C)sc23)[C@@H](C)C1 (stereo partly drawn) [Example 24, 3-((7-(5-chloro-2-(((S)-4-ethyl-2-methylpiperazin-1-yl)methyl)-3-methylphenyl)thieno[3,2-b]pyridin-2-yl)methyl)-6,6-dimethyl-3-azabicyclo[3.1.0]hexane-2,4-dione]",< 10
15,"Cc1cc(C#N)cc(-c2ncnc3cc(CN4C(=O)C5CC5C4=O)sc23)c1CN1CCNC[C@@H]1C (stereo partly drawn) [Example 60, 3-(6-((2,4-dioxo-3-azabicyclo[3.1.0]hexan-3-yl)methyl)thieno[3,2-d]pyrimidin-4-yl)-5-methyl-4-(((S)-2-methylpiperazin-1-yl)methyl)benzonitrile]",10 to 100
16,"3-((7-(3,5-dichloro-2-(((2S,6S)-2,6-dimethylpiperazin-1-yl)methyl)phenyl)thieno[3,2-b]pyridin-2-yl)methyl)-1-methylpyrimidine-2,4(1H,3H)-dione [Example 95]",< 10
17,"C[C@H]1CNCCN1Cc1ccc(Cl)cc1-c1ncnc2cc(CN3C(=O)C4CC4C3=O)sc12 (stereo partly drawn) [Example 64, 3-((4-(5-chloro-2-(((S)-2-methylpiperazin-1-yl)methyl)phenyl)thieno[3,2-d]pyrimidin-6-yl)methyl)-3-azabicyclo[3.1.0]hexane-2,4-dione]",10 to 100

# Other lines, results leading:
row,IC50 [nM],Compound
1,10 to 100,"Cc1cc(Cl)cc(-c2ncnc3cc(CN4C(=O)CCC4C)sc23)c1C[C@@H]1CNCC(C)(C)O1 (stereo partly drawn) [Example 241, 1-((4-(5-chloro-2-(((R)-6,6-dimethylmorpholin-2-yl)methyl)-3-methylphenyl)thieno[3,2-d]pyrimidin-6-yl)methyl)-5-methylpyrrolidin-2-one]"
2,< 10,"Cc1cc(Cl)cc(-c2ncnc3cc(Cn4c(=O)c(F)cn(C(C)C)c4=O)sc23)c1CC1CNCCO1 (stereo not shown) [Example 168, 3-((4-(5-chloro-3-methyl-2-(morpholin-2-ylmethyl)phenyl)thieno[3,2-d]pyrimidin-6-yl)methyl)-5-fluoro-1-isopropylpyrimidine-2,4(1H,3H)-dione]"
3,< 10,"Cc1cc(Cl)cc(-c2ccnc3cc(Cn4c(=O)ccn(C5CCC5)c4=O)sc23)c1CC1CNCCO1 (stereo not shown) [Example 111, 3-((7-(5-chloro-3-methyl-2-(morpholin-2-ylmethyl)phenyl)thieno[3,2-b]pyridin-2-yl)methyl)-1-cyclobutylpyrimidine-2,4(1H,3H)-dione]"
4,< 10,"Cc1cc(Cl)cc(-c2ncnc3cc(CN4C(=O)CC[C@@H]4C(F)F)sc23)c1C[C@@H]1CNCC(C)(C)O1 [Example 242, (R)-1-((4-(5-chloro-2-(((R)-6,6-dimethylmorpholin-2-yl)methyl)-3-methylphenyl)thieno[3,2-d]pyrimidin-6-yl)methyl)-5-(difluoromethyl)pyrrolidin-2-one]"
5,< 10,"O=C1CCC(=O)N1Cc1cc2nccc(-c3cc(Cl)cc(Cl)c3CC3CNCCO3)c2s1 (stereo not shown) [Example 127, 1-((7-(3,5-dichloro-2-(morpholin-2-ylmethyl)phenyl)thieno[3,2-b]pyridin-2-yl)methyl)pyrrolidine-2,5-dione]"
6,< 10,"CC1(C)C2C(=O)N(Cc3cc4ncnc(-c5cc(Cl)cc(Cl)c5CC5CNCCO5)c4s3)C(=O)C21 (stereo not shown) [Example 226, 3-((4-(3,5-dichloro-2-(morpholin-2-ylmethyl)phenyl)thieno[3,2-d]pyrimidin-6-yl)methyl)-6,6-dimethyl-3-azabicyclo[3.1.0]hexane-2,4-dione]"
7,< 10,"Cc1cc(Cl)cc(-c2ncnc3cc(CN4C(=O)C5CC5C4=O)sc23)c1CC1CNCC2(COC2)O1 (stereo not shown) [Example 220, 3-((4-(2-((2,5-dioxa-8-azaspiro[3.5]nonan-6-yl)methyl)-5-chloro-3-methylphenyl)thieno[3,2-d]pyrimidin-6-yl)methyl)-3-azabicyclo[3.1.0]hexane-2,4-dione]"
8,< 10,"Cc1cc(Cl)cc(-c2ncnc3cc(Cn4c(=O)ccn(C)c4=O)sc23)c1CC1CNCCO1 (stereo not shown) [Example 162, 3-((4-(5-chloro-3-methyl-2-(morpholin-2-ylmethyl)phenyl)thieno[3,2-d]pyrimidin-6-yl)methyl)-1-methylpyrimidine-2,4(1H,3H)-dione]"
9,< 10,"COC(=O)[C@H]1CCC(=O)N1Cc1cc2ncnc(-c3cc(Cl)cc(C)c3C[C@@H]3CNCC(C)(C)O3)c2s1 [Example 224, methyl (R)-1-((4-(5-chloro-2-(((R)-6,6-dimethylmorpholin-2-yl)methyl)-3-methylphenyl)thieno[3,2-d]pyrimidin-6-yl)methyl)-5-oxopyrrolidine-2-carboxylate]"
10,< 10,"Cc1cc(Cl)cc(-c2ncnc3cc(CN4C(=O)CCN(CCF)C4=O)sc23)c1C[C@@H]1CNCC(C)(C)O1 [Example 257, 3-[[4-[5-chloro-2-[[(2R)-6,6-dimethylmorpholin-2-yl]methyl]-3-methyl-phenyl]thieno[3,2-d]pyrimidin-6-yl]methyl]-1-(2-fluoroethyl)hexahydropyrimidine-2,4-dione]"
11,< 10,"Cc1cc(Cl)cc(-c2ncnc3cc(CN4C(=O)CN(CCO)C4=O)sc23)c1C[C@@H]1CNCC(C)(C)O1 [Example 276, (R)-3-((4-(5-chloro-2-((6,6-dimethylmorpholin-2-yl)methyl)-3-methylphenyl)thieno[3,2-d]pyrimidin-6-yl)methyl)-1-(2-hydroxyethyl)imidazolidine-2,4-dione]"
